Laboratory results taken from patent US5545625A, “Preventing conversion of citrulline to argininosuccinate to limit pathological nitric oxide overproduction” (The Medical College of Wisconsin Research Foundation, Inc., priority 1994, dated 1996).

How the values were obtained:
nitric oxide synthase = assay: Nitric oxide synthase (NOS) activity of cytosol of rat aortic smooth muscle cells induced with LPS/interferon-gamma in presence of test agent (Example I); type: cell-based; conditions: mithramycin 0.001 to 10 μg/ml with LPS 30 μg/ml plus interferon-gamma 50 ng/ml, 24 hours; FIG. 1
Method: Aortic smooth muscle cells were cultured by explanting segments of the medial layer of aortae from adult male Fischer 344 rats. Aortae were removed aseptically and freed of adventitial and endothelial cells by scraping both the lumenal and abluminal surfaces. Medial fragments (1-2 mm) were allowed to attach to dry Primaria 25 cm^2 tissue culture flasks (Falcon; Oxnard, Calif.) which were kept moist with growth medium until cells emerged. Cultures were fed twice weekly with medium 199 containing 10% fetal bovine serum, 25 mM HEPES, 2 mM L-glutamine, 40 μg/ml endothelial cell growth supplement (Biomedical Technologies; Stoughton, Mass.) and 10 μg/ml gentamycin (GIBCO; Grand Island, N.Y.). When primary cultures became confluent, they were passaged by trypsinization and the explants were discarded. Cells in passage 10-15 were seeded at 20,000/well in 96-well plates. […]
Nitric oxide formation by smooth muscle cell cytosol was measured using a spectrophotometric kinetic microplate assay based on the increase in A405 accompanying the oxidation of Fe^2+ -myoglobin by nitric oxide. […] Assays were performed in triplicate with A405 recorded for each sample every 18 seconds for a period of 15 minutes. The rate of nitric oxide synthesis was calculated from the rate of increase in A405 by linear regression analysis. […]

[1] = tested on: argininosuccinate synthetase mRNA; assay: RT-PCR of argininosuccinate synthetase mRNA in induced rat aortic smooth muscle cells (Example III); type: cell-based; conditions: LPS 30 μg/ml plus interferon-gamma 50 ng/ml with mithramycin, 6 hours; FIG. 3
Method: (§1) Rat aortic smooth muscle cells were grown as described in Example I and were treated with 30 μg/ml bacterial lipopolysaccharide in combination with 50 ng/ml interferon-gamma. […] RNA was extracted by a modified guanidinium isothiocyanate method (RNAzol; Cinna/Biotecz, Houston, Tex.). Reverse transcriptase-polymerase chain reaction was performed by standard methods using 1 μg of total RNA. This was followed by polymerase chain reaction amplification using synthetic gene-specific primers for rat argininosuccinate synthetase as described in Amaya, Y., et al, J. Biochem. (Tokyo) 103, 177-181 (1988), for argininosuccinate lyase as described in Surh, L. C., et al, Nucleic Acids Research, 16, 9352 (1988) and murine-inducible nitric oxide synthase as described in Lyons, C. R., et al, J. Biol. Chem. 267, 6370-6374 (1992). The primers are specifically described in Hattori, Y., et al, J. Biol. Chem. 269, 9405-9408 (1994). Polymerase chain reaction amplification was performed according to the following schedule: denaturation, annealing, and elongation at 95, 55 and 72° C. for 30 sec, 30 sec and 1 min, respectively, for 30 cycles. […] Polymerase chain reaction products were electrophoresed on a 1.5% agarose gel containing ethidium bromide and visualized by UV-induced fluorescence. […]

[2] = tested on: nitric oxide synthase mRNA; assay: RT-PCR of nitric oxide synthase mRNA in induced rat aortic smooth muscle cells (Example III); type: cell-based; conditions: LPS 30 μg/ml plus interferon-gamma 50 ng/ml with mithramycin, 6 hours; FIG. 3
Method: as §1

[3] = tested on: rat aortic smooth muscle cells; assay: Nitrite production (indicator of cellular NO synthesis) by LPS/interferon-gamma induced rat aortic smooth muscle cells (Examples IV, V); type: cell-based; conditions: 24 hours, FIG. 4
Method: Rat aortic smooth muscle cells were grown as described in Example I and were continuously treated with 30 μg/ml of bacterial lipopolysaccharide in combination with 50 ng/ml of interferongamma. Concentrations of mithramycin as indicated in FIG. 4 were added either simultaneously with immunostimulant (filled in circles in FIG. 4) or 4 hours later (open circles in FIG. 4).
Nitrite was used as an indicator of cellular NO synthesis and assay was carried out as described in Gross, S. S., et al, J. Biol. Chem. 267, 25722-25729 (1992). In the assay, cells were treated with serum- and arginine-free RPMI 1640 medium containing the desired test agents for 24 hours. The accumulation of nitrite in the cell culture medium was quantified colorimetrically after adding 100 μl of Griess reagent (1% sulfanilamide and 0.1% naphthalene diamine in 5% o-phosphoric acid) to an equal volume of sample.
Rat aortic smooth muscle cells were grown as described in Example I and were treated with 30 μg/ml of bacterial lipopolysaccharide in combination with 50 ng/ml of interferon-gamma. Concentrations of L-citrulline and L-arginine as indicated in FIG. 5 were added simultaneously with immunostimulant. Nitrite was used as an indicator of cellular NO synthesis and assay therefor was carried out as described in Example IV.

Sprague-Dawley rats = assay: Air pouch inflammatory model with croton oil (Examples XII, XVIII); type: in vivo, rat; conditions: mithramycin 25 μg/kg intraperitoneally, repeated at 24 hour intervals; end of 5 days; versus rats without drug

COC(C(=O)C(O)C(C)O)C1Cc2cc3cc(OC4CC(OC5CC(O)C(O)C(C)O5)C(O)C(C)O4)c(C)c(O)c3c(O)c2C(=O)C1OC1CC(OC2CC(OC3CC(C)(O)C(O)C(C)O3)C(O)C(C)O2)C(O)C(C)O1 (stereo not shown) [mithramycin]
nitric oxide synthase activity (nitric oxide synthase): blocks argininosuccinate synthetase activity as well as nitric oxide synthase activity
gene transcription of argininosuccinate synthetase (mRNA level) [1]: inhibits gene transcription of argininosuccinate synthetase
gene transcription of nitric oxide synthase (mRNA level) [2]: inhibits gene transcription of argininosuccinate synthetase and nitric oxide synthase
nitrite accumulation in cell culture medium ([3]; mithramycin added 4 hours after immunostimulant): effectiveness to block NO production is markedly diminished
nitrite accumulation in cell culture medium ([3]; mithramycin added simultaneously with immunostimulant): inhibits induction of NO synthetic activity but is not a direct inhibitor of argininosuccinate synthetase or nitric oxide synthase
inflammation (Sprague-Dawley rats): less inflammation
nitrite in the fluid exudate of the lesion (Sprague-Dawley rats): significantly less nitrite
